Key:
[1] = system: human brain microvascular endothelial cell (BMEC); experiment: sAPP770 secreted from BMEC detected by APP770 ELISA; format: cell-based; details: culture 16 hr, n=4; for level of sAPP770 secreted from BMEC: cytokine 100 ng/ml
Excerpt: (A) Brief explanations of APP total ELISA and APP770 ELISA. The recognition sites of a trap antibody (with asterisk) and a detection antibody (without asterisk) in these ELISA systems are shown in the schematic drawing. (B) Western blot analysis. Anti-N terminal APP (22C11) antibody detects full-length APP695, APP751 and APP770 in the lysates of COS cells overexpressing APP695, APP751 and APP770, whereas anti-OX2 antibody used as a trap antibody in APP770 ELISA specifically recognizes APP770. (C) APP total ELISA detects sAPP695, sAPP751 and sAPP770 secreted from COS cells, whereas APP770 ELISA detects only sAPP770. (D) BMEC was cultured for 16 hr in the presence or absence of inflammatory cytokine (TNFα, IL-1β or IL-6; each 100 ng/ml), and sAPP770 secreted from the cells was detected by APP770 ELISA. […] (E) An influence on secretion of sAPP770 from BMEC by culture for 16 hr in the presence of TAPI-0 (10 μM). […] (F) The sAPP770 levels of human serum and human plasma samples are shown in mean±SEM (n=19).
Human APP695-pcDNA3.1, APP751-pcDNA3.1 and APP770-pcDNA3.1 used were those constructed in the previous study (J Biol Chem 285(51):40097-40103 (2010)). Human BMEC (Applied Cell Biology Research Institute) was cultured in CS-C complete medium added with 10% FBS, and used within 4 passages.
Using human sAPP total assay kit (IBL-Japan), sAPP695, sAPP751 and sAPP770 were detected according to the established protocol (http://www.ibl-japan.co.jp). The APP770 ELISA system was established as previously reported (Anal Chim Acta 631(1): 116-120 (2009)). Briefly explained, a 96 well plate was coated with an anti-OX2 antibody, and a horseradish peroxidase-conjugated anti-APP R101A4 antibody was used as a detection antibody. Human CSF (1:16 diluted with dilution buffer contained in kit), plasma and serum (1:75 diluted with dilution buffer contained in kit) were evaluated by APP total ELISA and APP770 ELISA.

platelets = experiment: release of sAPP770 from collagen-stimulated platelets (PRP), APP770 ELISA; format: cell-based, human; details: collagen final concentration 3 μg/ml
Experimental: (A, B) PRP was stirred under stimulation with collagen (final concentration 3 μg/ml). At the time points shown in the Figure, each sample was centrifuged, and supernatant (A) […] and platelet pellet (B) were analyzed by APP770 ELISA. (C) Platelets were washed, stimulated with collagen, centrifuged, and sAPP770 released in the supernatant was analyzed. (D) Schematic drawing showing APP770 and the sites recognized by a series of anti-APP antibodies. (E) After stimulation of platelets with collagen and, at the time points shown in the Figure, the platelet pellets were solubilized, sAPP was pulled down from the platelet release product, and analyzed by western blotting using anti-APP(22C11) antibody, anti-OX2 antibody, anti-APP(C) antibody and anti-KPI antibody. […]
On the day of experiment, blood (16 ml) was collected from healthy human by using a vacuum blood collection tube (NIPRO CORPORATION) containing 3.8% sodium citrate. […] The obtained cell lysate was evaluated by ELISA and Western blot analysis.
Using human sAPP total assay kit (IBL-Japan), sAPP695, sAPP751 and sAPP770 were detected according to the established protocol (http://www.ibl-japan.co.jp). […] Human CSF (1:16 diluted with dilution buffer contained in kit), plasma and serum (1:75 diluted with dilution buffer contained in kit) were evaluated by APP total ELISA and APP770 ELISA.

Molecule	level of sAPP770 secreted from BMEC [1]	also measured
CC(C)C[C@H](CC(=O)NO)C(=O)N[C@@H](Cc1ccc2ccccc2c1)C(=O)N[C@@H](C)C(N)=O [TAPI-0]		secretion of sAPP770 from BMEC ([1]; TAPI-0 10 μM): partially inhibited
IL-1β: recombinant human inflammatory cytokine from R&D Systems	significantly increased only slightly	
IL-6: recombinant human inflammatory cytokine from R&D Systems	did not increase	
TNFα	significantly increased only slightly	
collagen		level of sAPP770 in the platelet precipitate (platelets; after stimulation): decreased remarkably; level of sAPP770 in the PRP supernatant (platelets; one minute after stimulation): increased rapidly

— patent US20150219644A1, “MARKER FOR ACUTE CORONARY SYNDROME, AND USE THEREOF” (RIKEN, priority 2012, published 2015)
